± gives the expanded uncertainty stated by the source.
Legend:
[1] = 101 kPa, Liquid, Pycnometric method
[2] = xn = mol fraction of the nth substance listed; conditions: 101 kPa, Liquid, Pycnometric method

Question: With `CC(=O)[O-].CCn1cc[n+](C)c1` [1-ethyl-3-methylimidazolium acetate] as the molecule, how does the mass density ([1]; 298.1 K) read?
Answer: The mass density was 1102 ± 9 kg/m3.

Question: What about the mass density ([1]; 323.1 K) of the same molecule?
Answer: Its mass density is 1086 ± 9 kg/m3.

Question: And the mass density ([1]; 348.1 K)?
Answer: The mass density was 1073 ± 8 kg/m3.

Question: And the mass density ([1]; 373.1 K)?
Answer: The mass density was 1059 ± 8 kg/m3.

Question: With `CC(=O)[O-].CCn1cc[n+](C)c1` [1-ethyl-3-methylimidazolium acetate] + CCn1cc[n+](C)c1.O=C([O-])C(F)(F)F as the molecule, how does the mass density ([2]; 298.1 K, x2 = 0) read?
Answer: Its mass density is 1102 ± 9 kg/m3.

Question: What about the mass density ([2]; 323.1 K, x2 = 0) of the same molecule?
Answer: Its mass density is 1086 ± 9 kg/m3.

Question: And the mass density ([2]; 348.1 K, x2 = 0)?
Answer: The mass density was 1073 ± 8 kg/m3.

Question: And the mass density ([2]; 373.1 K, x2 = 0)?
Answer: Its mass density is 1059 ± 8 kg/m3.

Question: Which mass density ([1]; 298.1 K) does the source give for `CCn1cc[n+](C)c1.O=C([O-])C(F)(F)F` [1-ethyl-3-methylimidazolium trifluoroacetate] here?
Answer: Its mass density is 1301 ± 10 kg/m3.

Question: What about the mass density ([1]; 323.1 K) of the same molecule?
Answer: Its mass density is 1283 ± 10 kg/m3.

Question: And the mass density ([1]; 348.1 K)?
Answer: Its mass density is 1264 ± 10 kg/m3.

Question: And the mass density ([1]; 373.1 K)?
Answer: The mass density was 1250 ± 10 kg/m3.

Question: With `CCn1cc[n+](C)c1.O=C([O-])C(F)(F)F` [1-ethyl-3-methylimidazolium trifluoroacetate] + CC(=O)[O-].CCn1cc[n+](C)c1 as the molecule, how does the mass density ([2]; 298.1 K, x1 = 0.2464) read?
Answer: The mass density was 1152 ± 9 kg/m3.

Question: What about the mass density ([2]; 298.1 K, x1 = 0.5002) of the same molecule?
Answer: The mass density was 1204 ± 10 kg/m3.

Question: What about the mass density ([2]; 298.1 K, x1 = 0.7468) of the same molecule?
Answer: The mass density was 1252 ± 10 kg/m3.

Question: What about the mass density ([2]; 298.1 K, x1 = 1) of the same molecule?
Answer: Its mass density is 1301 ± 10 kg/m3.

Question: And the mass density ([2]; 323.1 K, x1 = 0.2464)?
Answer: Its mass density is 1136 ± 9 kg/m3.

Question: What about the mass density ([2]; 323.1 K, x1 = 0.5002) of the same molecule?
Answer: The mass density was 1189 ± 9 kg/m3.

Question: And the mass density ([2]; 323.1 K, x1 = 0.7468)?
Answer: Its mass density is 1235 ± 10 kg/m3.

Question: And the mass density ([2]; 323.1 K, x1 = 1)?
Answer: The mass density was 1283 ± 10 kg/m3.

Question: And the mass density ([2]; 348.1 K, x1 = 0.2464)?
Answer: The mass density was 1121 ± 9 kg/m3.

Question: What about the mass density ([2]; 348.1 K, x1 = 0.5002) of the same molecule?
Answer: Its mass density is 1172 ± 9 kg/m3.

Question: And the mass density ([2]; 348.1 K, x1 = 0.7468)?
Answer: The mass density was 1217 ± 10 kg/m3.

Question: And the mass density ([2]; 348.1 K, x1 = 1)?
Answer: Its mass density is 1264 ± 10 kg/m3.

Question: What about the mass density ([2]; 373.1 K, x1 = 0.2464) of the same molecule?
Answer: The mass density was 1107 ± 9 kg/m3.

Question: And the mass density ([2]; 373.1 K, x1 = 0.5002)?
Answer: The mass density was 1157 ± 9 kg/m3.

Question: What about the mass density ([2]; 373.1 K, x1 = 0.7468) of the same molecule?
Answer: Its mass density is 1202 ± 10 kg/m3.

Question: And the mass density ([2]; 373.1 K, x1 = 1)?
Answer: The mass density was 1250 ± 10 kg/m3.
